Assay results: US4629728A, “Antihypoxemic 5-(4-substituted piperazinyl)alkyl-8-substituted quinolines” (ADIR S.A.R.L., priority 1984, dated 1986)
Read-outs that look alike come from different tables or passages of the source.

Key:
[1] = prolongation of life in acute global ischemic syndrome by intravenous injection of magnesium chloride; format: in vivo; settings: mice; for minimal effective dose: Mus musculus
Procedure: The compounds of general formula I are tested by their capacity to prolong the life of mice submitted to an acute global ischemic syndrome by intravenous injection of magnesium chloride.

[2] = survival in acute global hypoxic syndrome due to inhalation of pure azote; format: in vivo; settings: Mus musculus; mice, intraperitoneal route or per os; read-out: average effective dose (ED50) increasing the survival time by 50% in relation to the control animals
Procedure: In the same way, the compounds of general formula I show a protective effect in mice during an acute global hypoxic syndrome due to inhalation of pure azote. The beneficial action is seen at the same doses as for the previous test. The same effective dose relation is found with the reference substances.
The average effective dose (ED50) increasing the survival time by 50% in relation to the control animals is approximately 3 mg/kg when these compounds are administered by intraperitoneal route or per os particularly with the compounds of Examples 38, 40, 51 and 54 described herein after.

[3] = cerebral oedema by hypoperfusion of 1 hour (ischemic syndrome) or by triethyl tin per os; format: in vivo; settings: reference substances
[4] = test system: mitochondrias of the cerebral cortex; assay: oxidative phosphorylation capacity of mitochondrias of the cerebral cortex after an ischemic syndrome; format: in vivo, rats; settings: ischemied rat, reference products
Description: These same compounds show their pharmacological action vis-a-vis losses of the oxidative phosphorylation capacity of mitochondrias of the cerebral cortex obtained after an ischemic syndrome in rats. […] The same activity is only obtained for the reference products with dihydroergotoxine.

cortical electrogenesis = assay: iterative anoxias test (losses of cortical electrogenesis); format: in vivo; settings: rats, administered intravenously
Procedure: The protective activity vis-a-vis the losses of cortical electrogenesis connected to the ischemic or hypoxic syndrome is evaluated by the iterative anoxias test in rats. […] After the second anoxia, whilst the control animals no longer recuperate their electrocortical activity, the animals treated with the compounds in particular the compounds described in Examples 30, 37, 38, 40 and 54 recover it when they have received by IV perfusion 33 micro g/kg of these. The reference substances only restore it later, at the 120th second for eburnamonine or nicergoline.

[5] = ip, intraperitoneal route, MgCl2 i.v., read-out: dose from which life of ischemied mice is significantly prolonged

## COc1ccccc1N1CCN(CCc2ccc(OS(C)(=O)=O)c3c2CCCN3)CC1 [Example 30, 5-{2-[4-(2-methoxyphenyl)piperazinyl]ethyl}-8-methylsulfonyloxy-1,2,3,4-tetrahydro quinoline]
[1]; [5]
  minimal effective dose: 1 mg/kg

## CC(=O)N1CCCc2c(CCN3CCN(c4ccccn4)CC3)ccc(O)c21 [Example 38, 1-acetyl-5-{2-[4-(2-pyridyl)piperazinyl]ethyl}-8-hydroxy-1,2,3,4-tetrahydro quinoline]
[2]
  ED50: ~3 mg/kg
[1]; [5]
  minimal effective dose: 1 mg/kg

## COc1ccccc1N1CCN(CCc2ccc(OC)c3c2CCCN3C(C)=O)CC1 [Example 40, 1-acetyl-5-{2-[4-(2-methoxyphenyl)piperazinyl]ethyl}-8-methoxy-1,2,3,4-tetrahydro quinoline]
[2]
  ED50: ~3 mg/kg
[1]; [5]
  minimal effective dose: 1 mg/kg

## COc1ccccc1N1CCN(CCc2ccc(O)c3c2CCCN3C)CC1 [Example 51, 1-methyl-5-{2-[4-(2-methoxyphenyl)piperazinyl]ethyl}-8-hydroxy-1,2,3,4-tetrahydro quinoline]
[2]
  ED50: ~3 mg/kg

## COc1ccccc1N1CCN(CCc2ccc(OC)c3c2CCCN3C=O)CC1 [Example 54, 1-formyl-5-{-2-[4-(2-methoxyphenyl)piperazinyl]ethyl}-8-methoxy-1,2,3,4-tetrahydro quinoline]
[2]
  ED50: ~3 mg/kg
[1]; [5]
  minimal effective dose: 1 mg/kg

## CO[C@]12C[C@@H](COC(=O)c3cncc(Br)c3)CN(C)[C@@H]1Cc1cn(C)c3cccc2c13 [nicergoline]
[3]
  higher dose needed for equally intense anti-oedema protective activity (relative to the compounds): 3 times more

## CC[C@]12CCCN3CCc4c(n(c5ccccc45)[C@@](O)(C(=O)OC)C1)[C@@H]32 [vincamine, reference compound]
[1]; po, per os, reference substances, read-out: effective dose per os (inactive up to / no effect below)
  minimal effective dose: ≥ 100 mg/kg
[3]
  higher dose needed for equally intense anti-oedema protective activity (relative to the compounds): 5 times more

## dihydroergotoxine
[4]
  activity on mitochondrial oxygen consumption compared with the compounds: same activity
[1]; per os, reference substances
  effective dose per os (inactive up to / no effect below): > 10 mg/kg
Cortical electrogenesis
  activity in iterative anoxias test compared with the compounds: comparable activity
